Biological target: truncated form of human NaV 1.8 with full channel activity (Homo sapiens, UniProt Q9Y5Y9)
Assay: E-VIPR Assay Method A for detecting and measuring Nav inhibition (HEK cells, membrane potential FRET dyes, electrical stimulation)
Assay type: cell-based
Settings: HEK cells expressing human NaV 1.8, HS (human serum) in compound loading buffer, 11 point dose response, top dose 3 μM, Table 20A, read-out: Nav 1.8 MedChem Optical Assay EVIPR Assay Method A HS IC50
Description: E-VIPR Assay Method A for Detecting and Measuring Nav Inhibition Properties Sodium ion channels are voltage-dependent proteins that can be activated by inducing membrane voltage changes by applying electric fields. The electrical stimulation instrument and methods of use, referred to as E-VIPR, are described in International Publication No. WO 2002/008748 A3 and C.-J. Huang et al. Characterization of voltage-gated sodium channel blockers by electrical stimulation and fluorescence detection of membrane potential, 24 Nature Biotech. 439-46 (2006), both of which are incorporated by reference in their entirety. The instrument comprises a microtiter plate handler, an optical system for exciting the coumarin dye while simultaneously recording the coumarin and oxonol emissions, a waveform generator, a current- or voltage-controlled amplifier, and parallel electrode pairs that are inserted into assay plate wells. Under integrated computer control, this instrument passes user-programmed electrical stimulus protocols to cells within the wells of the microtiter plate. […] Sigma #F4135), 1% NEAA (Non-Essential Amino Acids, Life Tech #11140), 1% HEPES (Life Tech #15630), 1% Pen-Strep (Penicillin-Streptomycin; […] Cells were expanded in vented cap flasks, with 95% humidity and 5% CO2. Reagents and Stock Solutions: • 100 mg/mL Pluronic F-127 (Sigma #P2443), in dry DMSO • Compound Plates: […] 5% KIR 2.1 Bacmam virus (produced in-house), prepared as described in Section 3.3 of J. A. […] The solution was made by adding 10% Pluronic F127 stock equal to combined volumes of CC2-DMPE and DiSBAC6(3). The order of preparation was first mix Pluronic and CC2-DMPE, then add DiSBAC6(3), then while vortexing add Bath1/β-Cyclodextrin. […] Assay Protocol: […] Final DMSO concentration for all wells in the assay was 0.625% (0.75% DMSO was supplemented to the Compound Loading Buffer for a final DMSO concentration of 0.625%). […] 3) Cell plates were prepared. On the day of the assay, the media was aspirated, and the cells were washed three times with 80 μL of Bath-1 buffer, maintaining 25 μL residual volume in each well. 4) 25 μL per well of Hexyl Dye Solution was dispensed into the cell plates. The cells were incubated for 20 minutes at room temp or ambient conditions in darkness. 5) 80 μL per well of Compound Loading Buffer was dispensed into compound plates. 6) The cell plates were washed three times with 80 μL per well of Bath-1 Buffer, leaving 25 µL of residual volume. Then 25 uL per well from compound plate was transferred to each cell plate. The mixture was incubated for 30 minutes at room temp/ambient conditions. 7) The plate was read on E-VIPR using the current-controlled amplifier to deliver stimulation wave pulses using the following protocol: 1.25 Amps, 2.5 ms pulse width biphasic waveform, 10 Hz for 10 seconds at a scan rate of 200 Hz. A pre-stimulus recording was performed for 0.5 seconds to obtain the un-stimulated intensities baseline. The stimulatory waveform was followed by 0.5 seconds of post-stimulation recording to examine the relaxation to the resting state. Data Analysis: Data were analyzed and reported as normalized ratios of emission intensities measured in the 460 nm and 580 nm channels. The response as a function of time was reported as the ratios obtained using the following formula: […] The data were further reduced by calculating the initial (Ri) and final (Rf) ratios. These were the average ratio values during part or all of the pre-stimulation period and during sample points during the stimulation period. The fluorescence ratio (Rf/Ri) was then calculated and reported as a function of time. Control responses were obtained by performing assays in the presence of the positive control, and in the absence of pharmacological agents (DMSO vehicle negative control). Responses to the negative (N) and positive (P) controls were calculated as above. The compound antagonist % activity A was then defined as: [formula] where X is the ratio response of the test compound. […]

Chain of truncated form of human NaV 1.8 with full channel activity (Q9Y5Y9 126-1722 limits assumed): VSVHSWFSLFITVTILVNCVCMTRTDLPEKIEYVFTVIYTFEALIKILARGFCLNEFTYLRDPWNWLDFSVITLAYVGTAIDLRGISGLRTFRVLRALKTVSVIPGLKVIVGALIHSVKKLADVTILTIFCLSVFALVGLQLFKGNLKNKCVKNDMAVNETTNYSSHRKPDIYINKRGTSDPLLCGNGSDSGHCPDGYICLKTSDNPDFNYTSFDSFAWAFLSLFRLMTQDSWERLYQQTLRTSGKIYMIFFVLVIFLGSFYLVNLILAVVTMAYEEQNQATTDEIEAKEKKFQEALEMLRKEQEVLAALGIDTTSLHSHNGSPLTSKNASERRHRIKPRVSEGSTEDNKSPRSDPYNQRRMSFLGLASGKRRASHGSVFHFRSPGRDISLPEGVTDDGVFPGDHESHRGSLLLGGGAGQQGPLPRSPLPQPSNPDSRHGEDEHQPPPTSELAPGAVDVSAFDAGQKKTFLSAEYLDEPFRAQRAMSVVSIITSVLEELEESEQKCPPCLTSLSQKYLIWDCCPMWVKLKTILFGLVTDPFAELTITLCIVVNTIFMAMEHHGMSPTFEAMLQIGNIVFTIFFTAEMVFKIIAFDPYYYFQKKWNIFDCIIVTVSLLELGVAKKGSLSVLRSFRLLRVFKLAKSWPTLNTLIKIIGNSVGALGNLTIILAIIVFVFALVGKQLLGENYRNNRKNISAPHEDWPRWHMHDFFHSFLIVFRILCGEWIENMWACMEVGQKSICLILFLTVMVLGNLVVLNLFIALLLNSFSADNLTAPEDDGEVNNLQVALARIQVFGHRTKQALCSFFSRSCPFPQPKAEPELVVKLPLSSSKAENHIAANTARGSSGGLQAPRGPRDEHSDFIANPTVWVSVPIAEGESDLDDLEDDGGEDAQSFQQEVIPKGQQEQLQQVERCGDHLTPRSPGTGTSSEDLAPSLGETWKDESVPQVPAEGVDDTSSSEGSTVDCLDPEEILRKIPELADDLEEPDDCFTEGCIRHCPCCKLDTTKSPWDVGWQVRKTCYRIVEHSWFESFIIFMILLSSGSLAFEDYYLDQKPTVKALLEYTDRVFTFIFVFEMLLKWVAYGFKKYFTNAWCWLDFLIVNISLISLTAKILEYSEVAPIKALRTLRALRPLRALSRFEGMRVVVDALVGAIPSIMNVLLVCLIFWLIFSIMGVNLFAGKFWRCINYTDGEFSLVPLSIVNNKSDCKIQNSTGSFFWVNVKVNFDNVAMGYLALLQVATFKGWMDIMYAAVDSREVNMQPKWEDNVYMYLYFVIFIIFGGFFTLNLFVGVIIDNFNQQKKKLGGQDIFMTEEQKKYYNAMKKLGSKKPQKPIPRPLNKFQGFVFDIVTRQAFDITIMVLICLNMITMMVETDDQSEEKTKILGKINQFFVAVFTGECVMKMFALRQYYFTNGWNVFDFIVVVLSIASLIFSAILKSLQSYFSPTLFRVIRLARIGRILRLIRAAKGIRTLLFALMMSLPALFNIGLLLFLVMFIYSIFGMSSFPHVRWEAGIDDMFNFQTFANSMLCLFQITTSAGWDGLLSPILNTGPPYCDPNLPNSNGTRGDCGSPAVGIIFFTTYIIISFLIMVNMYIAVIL

Row | IC50 | Compound
1 | 180 nM | COc1cc(OC(F)(F)F)ccc1Oc1cncc(F)c1C(=O)Nc1ccc(F)c(C(N)=O)c1 [Compound 117, N-(3-Carbamoyl-4-fluoro-phenyl)-3-fluoro-5-[2-methoxy-4-(trifluoromethoxy)phenoxy]pyridine-4-carboxamide]
2 | 53 nM | COc1cc(OC(F)(F)F)ccc1Oc1cc(C(F)(F)F)cc(F)c1C(=O)Nc1ccc(C(N)=O)nc1 [Compound 187, 5-[[2-Fluoro-6-[2-methoxy-4-(trifluoromethoxy)phenoxy]-4-(trifluoromethyl)benzoyl]amino]pyridine-2-carboxamide]
3 | 1500 nM | NC(=O)c1cc(NC(=O)c2ccc(OC(F)(F)F)cc2Oc2ccc(OC(F)(F)F)cc2)ccn1 [Compound 149, 4-[[4-(Trifluoromethoxy)-2-[4-(trifluoromethoxy)phenoxy]benzoyl]amino]pyridine-2-carboxamide]
4 | 123 nM | COc1cc(OC(F)(F)F)ccc1Oc1cc(C2CC2(F)F)ncc1C(=O)Nc1ccnc(C(N)=O)c1 (stereo not drawn) [Compound 107, N-(2-Carbamoyl-4-pyridyl)-6-(2,2-difluorocyclopropyl)-4-[2-methoxy-4-(trifluoromethoxy)phenoxy]pyridine-3-carboxamide]
5 | 16 nM | COc1cc(OC(F)(F)F)ccc1Oc1ccc(C(F)(F)F)c(F)c1C(=O)Nc1ccc(C(N)=O)nc1 [Compound 193, 5-[[2-fluoro-6-[2-methoxy-4-(trifluoromethoxy)phenoxy]-3-(trifluoromethyl)benzoyl]amino]pyridine-2-carboxamide]
6 | 500 nM | NC(=O)c1ccc(NC(=O)c2c(Cl)cc(Cl)cc2Oc2ccc(OC(F)(F)F)cc2)cn1 [Compound 184, 5-[[2,4-Dichloro-6-[4-(trifluoromethoxy)phenoxy]benzoyl]amino]pyridine-2-carboxamide]
7 | 47 nM | COc1cc(Oc2ccc(C(F)(F)F)c(F)c2C(=O)Nc2ccc(F)c(C(N)=O)c2)ccc1OC(F)(F)F [Compound 126, N-(3-Carbamoyl-4-fluoro-phenyl)-2-fluoro-6-[3-methoxy-4-(trifluoromethoxy)phenoxy]-3-(trifluoromethyl)benzamide]
8 | 135 nM | NC(=O)c1cc(F)cc(NC(=O)c2c(Oc3ccc(OC(F)(F)F)cc3)ccc(C(F)(F)F)c2F)c1 [Compound 101, N-(3-carbamoyl-5-fluoro-phenyl)-2-fluoro-6-[4-(trifluoromethoxy)phenoxy]-3-(trifluoromethyl)benzamide]
9 | 3 nM | [2H]C([2H])([2H])Oc1c(Oc2cc(Cl)c(C([2H])([2H])[2H])c(F)c2C(=O)Nc2ccnc(C(N)=O)c2)ccc(OC(F)(F)F)c1F [Compound 222, 4-[[4-Chloro-2-fluoro-6-[3-fluoro-2-(trideuteriomethoxy)-4-(trifluoromethoxy)phenoxy]-3-(trideuteriomethyl)benzoyl]amino]pyridine-2-carboxamide]
10 | 17 nM | NC(=O)c1cc(NC(=O)c2c(Oc3ccc(OC(F)(F)F)c(F)c3)ccc(C(F)(F)F)c2F)ccn1 [Compound 57, 4-[[2-fluoro-6-[3-fluoro-4-(trifluoromethoxy)phenoxy]-3-(trifluoromethyl)benzoyl]amino]pyridine-2-carboxamide]
11 | 250 nM | COc1ncccc1Oc1cc(Cl)c(Cl)cc1C(=O)Nc1ccc(F)c(C(N)=O)c1 [Compound 35, N-(3-carbamoyl-4-fluoro-phenyl)-4,5-dichloro-2-[(2-methoxy-3-pyridyl)oxy]benzamide]
12 | 310 nM | NC(=O)c1cc(NC(=O)c2c(Oc3ccc(OC(F)(F)F)cc3O)ccc(C(F)(F)F)c2F)ccc1F [Compound 142, N-(3-Carbamoyl-4-fluoro-phenyl)-2-fluoro-6-[2-hydroxy-4-(trifluoromethoxy)phenoxy]-3-(trifluoromethyl)benzamide]
